# Results taken from patent publication US6589977B1, “Pyrrole derivatives and cell death inhibitors” (Sagami Chemical Research Center, priority 1999, dated 2003).
# What was measured:
# [1] = system: Porcine ovarian granulosa cells (POGC); test: Inhibition of SNP-induced apoptosis of porcine ovarian granulosa cells; format: cell-based; conditions: SNP 0.5 mM; cells observed after 18 hours
# Text: (§1) Porcine ovaries were washed with PBS buffer, and Porcine ovarian granulosa cells (POGC) were collected by aspiration from follicles with a syringe. Cell fraction was recovered as a precipitate by centrifugation of the suspension. The operation of suspending the cell fraction into PBS buffer and subjecting the resulting suspension to centrifugation was repeated three times to wash the cells. The POGC obtained as a precipitate were suspended again into a culture medium (DMEM containing 10% fetal bovine serum) and cell clumps were disrupted by pipetting. The cell suspension was passed through a mesh to remove contaminating tissue fragments, and then pipetted in 24-well plates for cell culture. The cell suspension was cultured for 2 days in a CO2 incubator according to a conventional procedure (37° C., 5% CO2). Then, the medium was refreshed to remove floating cells and the cultivation was continued further 2 to 3 days until the cells reached subconfluency (0.7 to 2×10^5 cell/well). After the attaching cells were washed with serum-free medium, they were cultured in a serum-free DMEM (containing 5 μg/mL of transferrin, and 40 ng/mL of hydrocortisone, 4 mg/mL of bovine serum albumin (BSA), 100 nM androstendione) and it was possible to continue to culture cells with relatively immature differentiation. […] The cell death was also confirmed by MTT assay. Then, various concentrations of the test compounds were added to the present culture system and the cells were observed after 18 hours.
# cerebellar granule cells [2] = test: Inhibition of hydrogen peroxide-induced death of cerebellar granule cells; format: cell-based, rats; conditions: compound 10 μM added prior to hydrogen peroxide (10 μM); after 12 hours
# Method: (§2) According to a known method (A Dissection and Tissue Culture Manual of the Nervous System, p. 211, 1989, Alan R, Liss, Inc.), cerebellar granule cells were isolated from the cerebellum of 7 days old rats and cultured. Namely, after conducting isolation procedures described in the above literature, the resulting cells were resuspended in DMEM containing 10% fetal bovine serum, 25 mM KCl and 2 mM glutamine, and seeded in poly-lysine coated plates. After the cells were cultured in a CO2 incubator for 48 hours according to a conventional method, cytosine-1-β-D(+)-arabinofuranoside (Ara-C) (10 μM) was added thereto, and the cell was continued to culture. The following experiments were conducted with the cells of 7 to 14 days old from the start day of the cultivation, the cells having completed neurite extension sufficiently.
# cerebellar granule cells [3] = test: Inhibition of low potassium medium-induced death of cerebellar granule cells; format: cell-based, rats; conditions: compound 10 μM; low potassium medium (5 mM KCl); after 18 hours
# Method: as §2
# It is known that neuronal cells undergo cell death when they are cultured in a medium of low potassium (Proc. Natl. Acad. Sci. U.S.A., volume 90, p 10989, 1993). […] When the test compound 1 (10 μM), the test compound 10 (10 μM), or the test compound 15 (10 μM)coexisted, 50%, 80%, and 85% of cells were respectively alive on an observation made similarly after 18 hours.
# erythrocytes = test: Inhibition of hydrogen peroxide-induced hemolysis of erythrocytes; format: cell-based, Human; conditions: compound 10 μM added prior to hydrogen peroxide (300 μM); after 24 hours
# Method: Human blood was collected and precipitated by a centrifugation (1000 rpm, 5 min) and the precipitate containing erythrocytes was washed three times with PBS and resuspended (about 5×10^8 cells/ml) with DMEM containing 10% fetal bovine serum. Cell suspensions were dispensed into a 48-well plate to become subconfluent (about 5×10^5 cells/0.5 ml/well). When hydrogen peroxide (300 μM) was added and cultivation continued for 24 hours, more than 95% of erythrocytes underwent hemolysis and become dark and ghost-like on an observation under a light microscopy.
# undifferentiated POGC = test: Inhibition of hydrogen peroxide-induced cell death of undifferentiated POGC; format: cell-based, Porcine; conditions: compound 0.3 μM added prior to hydrogen peroxide (100 μM); observation after 18 hour
# Text: as §1, with “Then, various concentrations of the test compounds were added to the present culture system and the cells were observed after 18 hours.” left out
# Hela 3S cells = test: Anti-cell death effect on Hela 3S cells cultured in Krebs Ringer Buffer; format: cell-based, human; conditions: compound 10 μM
# Method: Hela 3S cells (culture medium: DMEM containing 10% fetal bovine serum), a cell line derived from human cervical cancer, were seeded into multi 48 well plates and cultured in a CO2 incubator according to conventional procedures. Confirming the subconfluency of a cell culture, the medium was replaced with Krebs Ringer Buffer (120 mM NaCl, […], 1 mM KH2PO4, […], 20 mM HEPES, pH 7.4, 2.57 g/L glucose, 0.05 g/L Phenol Red) and washed three times with the same buffer and cultivation continued in the same buffer. […] When the test compound 1 (10 μM) or the test compound 15 (10 μM) was added in the present culture system and cultivation continued similarly, the proportion of normal cells increased 59% or 77% respectively, and the proportion of necrosis-like cells decreased (1% or 0%, respectively), indicating the anti-cell death effects.
Compound,MEC (Minimum effective concentration for more than 95% of inhibition of cell death) [1],further results
Cn1cc(-c2c[nH]c3ccccc23)c(-c2cn(CCCN)c3ccccc23)c1 [Compound 4],0.3 µM,–
Cc1[nH]c2ccccc2c1-c1cn(C)cc1-c1c(C)[nH]c2ccccc12 [Compound 11],0.1 µM,–
Cn1cc(-c2cn(C)c3ccccc23)c(-c2cn(C)c3ccccc23)c1 [Compound 9],0.3 µM,–
Cc1cccc2c(-c3cn(C)cc3-c3c[nH]c4c(C)cccc34)c[nH]c12 [Compound 10],0.03 µM,cells alive (cerebellar granule cells [2]): > 95%; cells alive (cerebellar granule cells [3]): 80%; inhibition of hemolysis (erythrocytes): almost complete inhibition of hemolysis
c1ccc(-n2cc(-c3c[nH]c4ccccc34)c(-c3c[nH]c4ccccc34)c2)cc1 [Compound 17],0.3 µM,–
Cc1ccc2[nH]cc(-c3cn(C)cc3-c3cn(C(=O)OC(C)(C)C)c4ccc(C)cc34)c2c1 [Compound 22],0.3 µM,–
COc1ccc2c(c1)c(-c1cn(C)cc1-c1cn(C)c3ccc(OC)cc13)cn2C [Compound 14],1 µM,–
COc1ccc2[nH]cc(-c3cn(C)cc3-c3c[nH]c4ccc(OC)cc34)c2c1 [Compound 13],0.3 µM,–
Cc1ccc2c(c1)c(-c1cn(C)cc1-c1cn(CCCN)c3ccc(C)cc13)cn2C [Compound 16],0.1 µM,inhibition of cell death (undifferentiated POGC): complete inhibition of cell death; survival of the cells (undifferentiated POGC): more than 95%
Cn1cc(-c2c[nH]c3ccc(F)cc23)c(-c2c[nH]c3ccc(F)cc23)c1 [Compound 12],1 µM,–
CN(C)CCCn1cc(-c2cn(C)cc2-c2c[nH]c3ccccc23)c2ccccc21 [Compound 6],0.3 µM,–
Cc1ccc2c(c1)c(-c1cn(C)cc1-c1cn(C(=O)OC(C)(C)C)c3ccc(C)cc13)cn2C(=O)OC(C)(C)C [Compound 23],10 µM,–
Cn1cc(-c2c[nH]c3ccccc23)c(-c2c[nH]c3ccccc23)c1 [Compound 1],0.3 µM,cells alive (cerebellar granule cells [2]): more than 80%; cells alive (cerebellar granule cells [3]): 50%; proportion of necrosis-like cells (Hela 3S cells; after 5 hours (11% without compound)): 1%; proportion of normal cells (Hela 3S cells; after 5 hours (42% normal without compound)): 59%; inhibition of hemolysis (erythrocytes): almost complete inhibition of hemolysis
CN(C)CCCn1cc(-c2cn(C)cc2-c2cn(CCCN(C)C)c3ccccc23)c2ccccc21 [Compound 7],1 µM,–
Cn1cc(-c2cn(C(=O)OC(C)(C)C)c3ccccc23)c(-c2cn(C(=O)OC(C)(C)C)c3ccccc23)c1 [Compound 3],10 µM,–
"Cc1ccc2[nH]cc(-c3cn(C)cc3-c3cn(C)c4ccc(C)cc34)c2c1 [Compound 24, 3-(1,5-dimethyl-1H-indol-3-yl)-4-(5-methyl-1H-indol-3-yl)-1-methylpyrrole]",0.1 µM,–
Cn1cc(-c2cn(CCCN)c3ccccc23)c(-c2cn(CCCN)c3ccccc23)c1 [Compound 5],0.1 µM,–
Cn1cc(-c2c[nH]c3ccccc23)c(-c2cn(C(=O)OC(C)(C)C)c3ccccc23)c1 [Compound 2],0.3 µM,–
c1ccc(Cn2cc(-c3c[nH]c4ccccc34)c(-c3c[nH]c4ccccc34)c2)cc1 [Compound 18],0.3 µM,–
Cn1cc(-c2c[nH]c3ccccc23)c(-c2cn(C)c3ccccc23)c1 [Compound 8],0.3 µM,–
